Our source for the MIC and Activity values is ChEMBL document CHEMBL4837189, “Opportunities and Limitations for Assigning Relative Configurations of Antibacterial Bislactones using GIAO NMR Shift Calculations” (J Nat Prod, 2021).

Converted amounts (≈) assume the structure as drawn. Where only a bound is given, the exact number is not on record here.

One data set has as its system Bacillus anthracis. The experiment in a line: Antimicrobial activity against Bacillus anthracis assessed as microbial growth inhibition by CLSI-protocol based broth microdilution assay. The data set is classed as functional. Background: In broth dilution the organism is exposed to a series of concentrations in liquid medium.
Data set [1] deals with Staphylococcus aureus. Kind of data set: Antimicrobial activity against methicillin-resistant Staphylococcus aureus assessed as microbial growth inhibition by CLSI-protocol based broth microdilution assay. The data set is classed as functional.
For data set [2], the system named is Staphylococcus aureus. The experiment in a line: Antimicrobial activity against Staphylococcus aureus assessed as microbial growth inhibition by CLSI-protocol based broth microdilution assay. The data set is classed as functional.
Another data set has as its system Escherichia coli. Kind of data set: Antimicrobial activity against Escherichia coli assessed as microbial growth inhibition by CLSI-protocol based broth microdilution assay. The class given is functional.
The test system of a further data set is Pseudomonas aeruginosa. Kind of data set: Antimicrobial activity against Pseudomonas aeruginosa assessed as microbial growth inhibition by CLSI-protocol based broth microdilution assay. The class given is functional.
A further data set concerns MDA-MB-231. Kind of data set: Cytotoxicty against human MDA-MB-231 cells assessed as reduction in cell viability at > 25 uM measured after 72 hrs by CellTiter-Blue cell viability assay. The class given is cell-based. The settings on record: mda-mb-231, 72 h. A general note: Alamar Blue is a resazurin reagent that responds to reducing activity.
A further data set relates to OVCAR-3. Kind of data set: Cytotoxicty against human OVCAR-3 cells assessed as reduction in cell viability at > 25 uM measured after 72 hrs by CellTiter-Blue cell viability assay. The data set is classed as cell-based. Particulars: ovcar-3, 72 h.
The next data set has as its system MDA-MB-435. Kind of data set: Cytotoxicty against human MDA-MB-435 cells assessed as reduction in cell viability at > 25 uM measured after 72 hrs by CellTiter-Blue cell viability assay. The class given is cell-based. The settings on record: mda-mb-435, 72 h.

In the case of `CC1OC(=O)/C=C/[C@@H](O)CC[C@H](C)OC(=O)CCC1=O` (stereo partly drawn), the MIC came out at 62.5 µg/mL (≈ 220 µM) in the data set on Bacillus anthracis; 125 µg/mL (≈ 440 µM) in the data set on Staphylococcus aureus [1]; 1 µg/mL (≈ 3.52 µM) in the data set with Staphylococcus aureus [2]; 125 µg/mL (≈ 440 µM) in the data set on Escherichia coli; 125 µg/mL (≈ 440 µM) with Pseudomonas aeruginosa. The Activity entry in the data set with MDA-MB-231, with OVCAR-3 and in the data set on MDA-MB-435 was “Non-Toxic” each time.
Turning to `C[C@@H]1OC(=O)/C=C/[C@@H](O)CC[C@H](C)OC(=O)CC[C@@H]1O`, the MIC turned out to be 125 µg/mL (≈ 437 µM) in the data set on Bacillus anthracis; 125 µg/mL (≈ 437 µM) with Staphylococcus aureus [1]; 4 µg/mL (≈ 14 µM) in the data set on Staphylococcus aureus [2]; 125 µg/mL (≈ 437 µM) with Escherichia coli; 125 µg/mL (≈ 437 µM) with Pseudomonas aeruginosa.
As for `CC(=C\C(=O)O)/C=C(\C)C[C@H](C)CCCC[C@H]1OC(=O)[C@@H]1CO` [ANTIBIOTIC 1233A], the MIC in the data set on Bacillus anthracis was greater than 250 µg/mL; with Staphylococcus aureus [1], 125 µg/mL (≈ 385 µM); in the data set on Staphylococcus aureus [2], 125 µg/mL (≈ 385 µM); in the data set on Escherichia coli, greater than 250 µg/mL; in the data set on Pseudomonas aeruginosa it was 125 µg/mL (≈ 385 µM).
Turning to `CC[C@H]1OC(=O)[C@H](C)[C@@H](O[C@H]2C[C@@](C)(OC)[C@@H](O)[C@H](C)O2)[C@H](C)[C@@H](O[C@@H]2O[C@H](C)C[C@H](N(C)C)[C@H]2O)[C@](C)(OC)C[C@@H](C)C(=O)[C@H](C)[C@@H](O)[C@]1(C)O` [CLARITHROMYCIN], the MIC with Bacillus anthracis was 0.25 µg/mL (≈ 0.334 µM); in the data set with Staphylococcus aureus [1] it was greater than 250 µg/mL; in the data set on Staphylococcus aureus [2], 0.25 µg/mL (≈ 0.334 µM); in the data set with Escherichia coli it was 16 µg/mL (≈ 21.4 µM); in the data set on Pseudomonas aeruginosa it was 125 µg/mL (≈ 167 µM).
Regarding `CC[C@H]1OC(=O)[C@H](C)[C@@H](O[C@H]2C[C@@](C)(OC)[C@@H](O)[C@H](C)O2)[C@H](C)[C@@H](O[C@@H]2O[C@H](C)C[C@H](N(C)C)[C@H]2O)[C@](C)(O)C[C@@H](C)C(=O)[C@H](C)[C@@H](O)[C@]1(C)O` [ERYTHROMYCIN], the MIC was found to be 0.25 µg/mL (≈ 0.341 µM) with Bacillus anthracis; 0.25 µg/mL (≈ 0.341 µM) with Staphylococcus aureus [1]; 0.5 µg/mL (≈ 0.681 µM) with Staphylococcus aureus [2]; 16 µg/mL (≈ 21.8 µM) with Escherichia coli; 62.5 µg/mL (≈ 85.2 µM) in the data set with Pseudomonas aeruginosa.
Take `CC1(C)S[C@@H]2[C@H](NC(=O)Cc3ccccc3)C(=O)N2[C@H]1C(=O)O` [PENICILLIN G]: the MIC in the data set with Bacillus anthracis is 0.25 µg/mL (≈ 0.748 µM); with Staphylococcus aureus [1], 0.5 µg/mL (≈ 1.5 µM); in the data set with Staphylococcus aureus [2], 0.25 µg/mL (≈ 0.748 µM); in the data set on Escherichia coli, 16 µg/mL (≈ 47.8 µM); with Pseudomonas aeruginosa it was greater than 250 µg/mL.
With `CO[C@H]1/C=C/O[C@@]2(C)Oc3c(C)c(O)c4c(O)c(c(/C=N/N5CCN(C)CC5)c(O)c4c3C2=O)NC(=O)/C(C)=C\C=C\[C@H](C)[C@H](O)[C@@H](C)[C@@H](O)[C@@H](C)[C@H](OC(C)=O)[C@@H]1C` [RIFAMPIN], the MIC in the data set on Bacillus anthracis was determined as 0.25 µg/mL (≈ 0.304 µM); in the data set on Staphylococcus aureus [1] it was 0.25 µg/mL (≈ 0.304 µM); with Staphylococcus aureus [2], 0.25 µg/mL (≈ 0.304 µM); with Escherichia coli it was 4 µg/mL (≈ 4.86 µM); in the data set on Pseudomonas aeruginosa, 62.5 µg/mL (≈ 75.9 µM).
Take `CN[C@@H]1[C@H](O[C@H]2[C@H](O[C@H]3[C@H](O)[C@@H](O)[C@H](N=C(N)N)[C@@H](O)[C@@H]3N=C(N)N)O[C@@H](C)[C@]2(O)C=O)O[C@@H](CO)[C@H](O)[C@H]1O` [STREPTOMYCIN]: the MIC with Bacillus anthracis is 0.25 µg/mL (≈ 0.43 µM); in the data set on Staphylococcus aureus [1], 0.25 µg/mL (≈ 0.43 µM); in the data set with Staphylococcus aureus [2] it was 0.25 µg/mL (≈ 0.43 µM); in the data set with Escherichia coli it was 0.25 µg/mL (≈ 0.43 µM); in the data set with Pseudomonas aeruginosa it was 1 µg/mL (≈ 1.72 µM).

As usually defined, the MIC is the lowest concentration found to suppress growth.
